Data from ChEMBL document CHEMBL4371076 (J Med Chem, 2019).
pIC50: −log10 of the molar value. Values belong to the molecule of their own block, whether it stands above or below them.

How the values were obtained:
[1] = molecular target: T1, Cytochrome P450 2B6 (Homo sapiens, UniProt P20813); test: Inhibition of CYP2B6 in human liver microsomes; assay type: ADME; details: human, microsomes
T1 sequence (P20813 whole entry): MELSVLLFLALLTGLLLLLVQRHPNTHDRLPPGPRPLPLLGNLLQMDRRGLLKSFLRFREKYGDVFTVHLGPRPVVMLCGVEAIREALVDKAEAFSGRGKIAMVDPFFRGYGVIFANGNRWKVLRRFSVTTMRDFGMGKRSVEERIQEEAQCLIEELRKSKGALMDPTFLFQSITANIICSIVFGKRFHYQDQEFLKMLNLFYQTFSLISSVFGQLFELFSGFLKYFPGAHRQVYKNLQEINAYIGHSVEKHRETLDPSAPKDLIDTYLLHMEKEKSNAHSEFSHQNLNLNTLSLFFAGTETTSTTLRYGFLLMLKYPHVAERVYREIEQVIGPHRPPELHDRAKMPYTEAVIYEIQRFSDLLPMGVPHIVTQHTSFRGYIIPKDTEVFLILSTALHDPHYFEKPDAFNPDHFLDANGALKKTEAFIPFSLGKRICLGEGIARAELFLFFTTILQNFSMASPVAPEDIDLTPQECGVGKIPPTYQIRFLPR

[2] = Permeability of the compound at pH 5.5 by PAMPA; assay type: ADME; details: read-out: permeability
[3] = molecular target: T2, Cytochrome P450 2C9 (Homo sapiens, UniProt P11712); test: Time-dependant inhibition of CYP2C9 in human liver microsomes; assay type: ADME
[4] = Metabolic stability in human liver microsomes assessed as parent compound remaining at 0.5 uM after 10 mins; assay type: ADME, Microsome; details: read-out: Stability
[5] = molecular target: T3, Sodium channel protein type 9 subunit alpha (Homo sapiens, UniProt Q15858); test: Inhibition of human Nav1.7 expressed in HEK293 cells after 600 secs at -60 mV holding potential by ion works barracuda population patch clamp method; assay type: cell-based
[6] = molecular target: T4, Cytochrome P450 2C19 (Homo sapiens, UniProt P33261); test: Inhibition of CYP2C19 in human liver microsomes; assay type: ADME; details: human, microsomes
[7] = molecular target: Sodium channel protein type 5 subunit alpha (Homo sapiens, UniProt Q14524); test: Inhibition of human Nav1.5 expressed in HEK293 cells after 600 secs at -50 mV holding potential by ion works barracuda population patch clamp method; assay type: cell-based
[8] = molecular target: T3, Sodium channel protein type 9 subunit alpha; test: Inhibition of recombinant human Nav1.7 expressed in HEK293 cells at -70 mV holding potential by patch clamp electrophysiology method; assay type: cell-based
[9] = Metabolic stability in mouse liver microsomes assessed as parent compound remaining at 0.5 uM after 10 mins; assay type: ADME, Microsome; details: read-out: Stability
[10] = molecular target: T5, Cytochrome P450 3A4 (Homo sapiens, UniProt P08684); test: Inhibition of CYP3A4 in human liver microsomes; assay type: ADME; details: human, microsomes
[11] = molecular target: T6, Cytochrome P450 2C8 (Homo sapiens, UniProt P10632); test: Time-dependant inhibition of CYP2C8 in human liver microsomes; assay type: ADME
T6 sequence (P10632 whole entry): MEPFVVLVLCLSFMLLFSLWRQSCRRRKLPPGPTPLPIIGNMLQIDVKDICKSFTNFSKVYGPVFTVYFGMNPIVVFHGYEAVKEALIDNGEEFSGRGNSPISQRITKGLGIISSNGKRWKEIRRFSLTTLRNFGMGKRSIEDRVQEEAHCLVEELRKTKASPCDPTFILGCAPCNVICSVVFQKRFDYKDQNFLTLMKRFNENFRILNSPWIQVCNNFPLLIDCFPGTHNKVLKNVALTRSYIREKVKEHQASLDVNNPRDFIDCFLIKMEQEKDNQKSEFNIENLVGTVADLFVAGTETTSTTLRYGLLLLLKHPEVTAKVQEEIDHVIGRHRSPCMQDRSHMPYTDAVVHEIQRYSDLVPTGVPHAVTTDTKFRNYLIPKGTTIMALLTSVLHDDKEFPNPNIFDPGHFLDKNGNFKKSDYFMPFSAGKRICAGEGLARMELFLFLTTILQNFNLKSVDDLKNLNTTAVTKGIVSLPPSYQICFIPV

[12] = molecular target: T7, Cytochrome P450 2D6 (Homo sapiens, UniProt P10635); test: Inhibition of CYP2D6 in human liver microsomes; assay type: ADME; details: human, microsomes
[13] = Fraction unbound in human plasma; assay type: ADME, cell-free
[14] = molecular target: T1, Cytochrome P450 2B6; test: Time-dependant inhibition of CYP2B6 in human liver microsomes; assay type: ADME
[15] = molecular target: T2, Cytochrome P450 2C9; test: Inhibition of CYP2C9 in human liver microsomes; assay type: ADME; details: human, microsomes
[16] = molecular target: T6, Cytochrome P450 2C8; test: Inhibition of CYP2C8 in human liver microsomes; assay type: ADME; details: human, microsomes
[17] = Fraction unbound in mouse plasma; assay type: ADME, cell-free
[18] = Permeability of the compound at pH 7.4 by PAMPA; assay type: ADME; details: read-out: permeability
[19] = Metabolic stability in rat liver microsomes assessed as parent compound remaining at 0.5 uM after 10 mins; assay type: ADME, Microsome; details: read-out: Stability
[20] = molecular target: T7, Cytochrome P450 2D6; test: Time-dependant inhibition of CYP2D6 in human liver microsomes; assay type: ADME
[21] = molecular target: T5, Cytochrome P450 3A4; test: Time-dependant inhibition of CYP3A4 in human liver microsomes; assay type: ADME
[22] = molecular target: T4, Cytochrome P450 2C19; test: Time-dependant inhibition of CYP2C19 in human liver microsomes; assay type: ADME
[23] = Efflux ratio of permeability in human Caco2 cells; assay type: ADME, cell-based; details: Caco-2
[24] = Permeability from apical to basolateral side in human Caco2 cells; assay type: ADME, cell-based; details: Caco-2, read-out: permeability
[25] = Permeability from basolateral to apical side in human Caco2 cells; assay type: ADME, cell-based; details: Caco-2, read-out: permeability

T3 sequence (Q15858 whole entry): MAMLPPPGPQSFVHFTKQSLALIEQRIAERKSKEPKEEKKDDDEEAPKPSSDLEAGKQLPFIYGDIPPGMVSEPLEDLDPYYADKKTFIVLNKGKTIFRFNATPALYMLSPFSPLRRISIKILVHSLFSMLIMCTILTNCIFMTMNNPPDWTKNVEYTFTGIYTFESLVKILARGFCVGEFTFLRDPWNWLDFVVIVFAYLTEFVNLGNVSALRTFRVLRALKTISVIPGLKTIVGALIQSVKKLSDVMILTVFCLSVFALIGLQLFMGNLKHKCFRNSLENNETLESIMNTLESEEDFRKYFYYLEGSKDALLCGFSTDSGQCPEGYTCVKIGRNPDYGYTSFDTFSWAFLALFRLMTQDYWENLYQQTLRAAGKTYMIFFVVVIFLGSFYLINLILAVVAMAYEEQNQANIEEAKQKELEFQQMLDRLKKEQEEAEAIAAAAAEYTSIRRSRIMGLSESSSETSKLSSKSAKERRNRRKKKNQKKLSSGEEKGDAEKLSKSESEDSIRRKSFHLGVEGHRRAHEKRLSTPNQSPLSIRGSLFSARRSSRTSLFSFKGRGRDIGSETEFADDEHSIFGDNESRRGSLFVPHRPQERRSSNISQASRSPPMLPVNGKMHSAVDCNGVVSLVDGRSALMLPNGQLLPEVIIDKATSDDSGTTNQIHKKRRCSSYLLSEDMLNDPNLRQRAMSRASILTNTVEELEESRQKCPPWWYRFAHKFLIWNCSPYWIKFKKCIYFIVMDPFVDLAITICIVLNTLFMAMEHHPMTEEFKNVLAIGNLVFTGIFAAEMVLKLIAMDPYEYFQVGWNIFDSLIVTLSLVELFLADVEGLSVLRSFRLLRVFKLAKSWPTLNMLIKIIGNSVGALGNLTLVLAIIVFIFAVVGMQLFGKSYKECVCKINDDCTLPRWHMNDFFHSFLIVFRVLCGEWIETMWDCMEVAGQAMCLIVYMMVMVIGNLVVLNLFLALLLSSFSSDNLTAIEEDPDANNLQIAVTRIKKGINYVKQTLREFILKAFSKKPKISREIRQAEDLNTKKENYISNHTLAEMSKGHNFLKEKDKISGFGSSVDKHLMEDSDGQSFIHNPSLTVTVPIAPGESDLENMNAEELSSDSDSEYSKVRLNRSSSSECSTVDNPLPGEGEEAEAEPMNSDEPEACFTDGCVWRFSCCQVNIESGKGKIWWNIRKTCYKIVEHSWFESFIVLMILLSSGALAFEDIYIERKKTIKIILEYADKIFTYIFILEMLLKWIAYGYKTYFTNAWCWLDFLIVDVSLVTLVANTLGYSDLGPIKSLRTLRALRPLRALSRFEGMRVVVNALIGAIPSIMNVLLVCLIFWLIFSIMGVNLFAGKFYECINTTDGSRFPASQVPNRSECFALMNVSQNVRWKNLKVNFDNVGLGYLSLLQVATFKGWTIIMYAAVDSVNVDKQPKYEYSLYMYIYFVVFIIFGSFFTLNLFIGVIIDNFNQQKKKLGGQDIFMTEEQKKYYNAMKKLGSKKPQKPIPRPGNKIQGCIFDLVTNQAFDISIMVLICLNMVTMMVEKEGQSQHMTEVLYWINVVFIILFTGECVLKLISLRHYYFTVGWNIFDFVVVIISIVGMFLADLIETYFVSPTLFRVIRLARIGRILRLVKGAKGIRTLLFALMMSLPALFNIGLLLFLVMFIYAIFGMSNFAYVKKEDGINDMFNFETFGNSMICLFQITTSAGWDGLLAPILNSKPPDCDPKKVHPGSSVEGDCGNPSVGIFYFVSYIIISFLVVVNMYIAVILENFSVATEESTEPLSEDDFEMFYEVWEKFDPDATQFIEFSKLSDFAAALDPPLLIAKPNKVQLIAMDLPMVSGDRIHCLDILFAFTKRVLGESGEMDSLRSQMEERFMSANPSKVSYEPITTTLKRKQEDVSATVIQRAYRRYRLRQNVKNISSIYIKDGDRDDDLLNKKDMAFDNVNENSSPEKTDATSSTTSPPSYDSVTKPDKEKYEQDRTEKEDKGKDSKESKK
T7 sequence (P10635 whole entry): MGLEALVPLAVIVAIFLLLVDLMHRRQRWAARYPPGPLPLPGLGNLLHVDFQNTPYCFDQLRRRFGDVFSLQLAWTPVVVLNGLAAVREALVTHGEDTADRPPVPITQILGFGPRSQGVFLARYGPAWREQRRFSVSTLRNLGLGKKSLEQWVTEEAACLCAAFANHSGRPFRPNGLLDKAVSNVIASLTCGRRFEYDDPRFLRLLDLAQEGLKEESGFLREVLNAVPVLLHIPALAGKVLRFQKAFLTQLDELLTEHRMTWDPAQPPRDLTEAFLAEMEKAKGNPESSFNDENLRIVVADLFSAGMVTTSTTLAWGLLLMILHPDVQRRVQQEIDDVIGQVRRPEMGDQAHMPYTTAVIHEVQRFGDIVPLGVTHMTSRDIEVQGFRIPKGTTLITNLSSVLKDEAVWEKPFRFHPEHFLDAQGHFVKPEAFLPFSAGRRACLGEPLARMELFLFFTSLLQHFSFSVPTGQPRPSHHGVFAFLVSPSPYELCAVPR
T2 sequence (P11712 whole entry): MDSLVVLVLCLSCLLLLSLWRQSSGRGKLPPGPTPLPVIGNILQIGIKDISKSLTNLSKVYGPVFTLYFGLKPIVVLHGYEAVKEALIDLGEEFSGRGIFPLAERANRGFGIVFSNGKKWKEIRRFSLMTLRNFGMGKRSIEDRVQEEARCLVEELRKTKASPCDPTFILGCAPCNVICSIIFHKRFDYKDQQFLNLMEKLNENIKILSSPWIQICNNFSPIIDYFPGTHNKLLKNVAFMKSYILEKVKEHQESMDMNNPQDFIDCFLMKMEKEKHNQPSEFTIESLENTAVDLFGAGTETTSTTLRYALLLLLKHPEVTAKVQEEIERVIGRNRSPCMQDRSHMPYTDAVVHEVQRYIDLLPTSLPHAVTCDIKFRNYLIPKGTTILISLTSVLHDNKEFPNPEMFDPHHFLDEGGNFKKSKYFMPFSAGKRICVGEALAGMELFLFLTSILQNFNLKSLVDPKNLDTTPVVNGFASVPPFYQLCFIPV
T5 sequence (P08684 whole entry): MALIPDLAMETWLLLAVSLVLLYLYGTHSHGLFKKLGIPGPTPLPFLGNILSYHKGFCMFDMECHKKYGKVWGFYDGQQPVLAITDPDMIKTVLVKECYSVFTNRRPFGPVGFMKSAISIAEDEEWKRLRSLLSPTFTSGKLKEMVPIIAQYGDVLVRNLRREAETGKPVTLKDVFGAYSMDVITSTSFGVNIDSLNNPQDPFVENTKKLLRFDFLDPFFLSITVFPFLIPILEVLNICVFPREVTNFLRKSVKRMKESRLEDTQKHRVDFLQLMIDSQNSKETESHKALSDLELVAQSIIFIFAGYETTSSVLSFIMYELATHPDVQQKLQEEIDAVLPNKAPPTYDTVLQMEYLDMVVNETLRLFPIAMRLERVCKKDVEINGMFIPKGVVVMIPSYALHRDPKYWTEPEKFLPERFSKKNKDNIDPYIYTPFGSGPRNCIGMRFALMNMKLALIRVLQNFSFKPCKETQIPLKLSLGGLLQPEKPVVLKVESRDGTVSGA
T4 sequence (P33261 whole entry): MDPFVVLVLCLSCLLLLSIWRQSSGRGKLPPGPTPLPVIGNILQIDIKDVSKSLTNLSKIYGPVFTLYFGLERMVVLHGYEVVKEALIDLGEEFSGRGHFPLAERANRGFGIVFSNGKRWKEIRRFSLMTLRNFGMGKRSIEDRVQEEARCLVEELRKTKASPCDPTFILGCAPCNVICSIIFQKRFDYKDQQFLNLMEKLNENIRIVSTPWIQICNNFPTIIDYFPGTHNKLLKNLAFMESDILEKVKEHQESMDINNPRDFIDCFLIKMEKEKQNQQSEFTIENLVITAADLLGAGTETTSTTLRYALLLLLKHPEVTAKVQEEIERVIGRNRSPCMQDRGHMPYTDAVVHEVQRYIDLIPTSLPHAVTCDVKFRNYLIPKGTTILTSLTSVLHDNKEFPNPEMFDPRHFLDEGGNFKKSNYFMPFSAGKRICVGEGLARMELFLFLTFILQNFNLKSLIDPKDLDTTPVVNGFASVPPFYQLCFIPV

inhibition (INH) [1]: Not Active
Papp [2]: 52.5 ×10⁻⁶ cm/s
TDI [3]: Not Active
remaining at 10 min, 0.5 µM [4]: 87%
pIC50 [5]: 6.98
inhibition (INH) [6]: Not Active
pIC50 [8]: 8.10
remaining at 10 min, 0.5 µM [9]: 87%
inhibition (INH) [10]: Not Active
TDI [11]: Not Active
inhibition (INH) [12]: Not Active
fraction unbound [13]: 0.002
TDI [14]: Not Active
inhibition (INH) [15]: Not Active
inhibition (INH) [16]: Not Active
fraction unbound [17]: 0.004
Papp [18]: 13.5 ×10⁻⁶ cm/s
remaining at 10 min, 0.5 µM [19]: 92%
TDI [20]: Not Active
TDI [21]: Not Active
TDI [22]: Not Active
SMILES: Cn1cc(-c2ccc(C(F)(F)F)cc2)c2ccc(C(=O)NS(=O)(=O)C3CC3)cc21
pIC50 [7]: 5.08

pIC50 [5]: 6.55
SMILES: CC(C)COc1ncc(-c2n[nH]c3cc(C(=O)NS(C)(=O)=O)ccc23)cc1Cl

SMILES: COc1cc(-c2cn(C)c3cc(C(=O)NS(C)(=O)=O)ccc23)cnc1OCC(C)C
pIC50 [5]: 6.29
pIC50 [7]: < 4.52

SMILES: Cn1cc(-c2cccnc2)c2ccc(C(=O)NS(C)(=O)=O)cc21
pIC50 [5]: < 5.52

inhibition (INH) [1]: Not Active
Papp [2]: 59.2 ×10⁻⁶ cm/s
TDI [3]: Not Active
efflux ratio [23]: > 21
remaining at 10 min, 0.5 µM [4]: 100%
pIC50 [5]: 7.89
inhibition (INH) [6]: Not Active
pIC50 [8]: 7.68
remaining at 10 min, 0.5 µM [9]: 100%
inhibition (INH) [10]: Not Active
TDI [11]: Not Active
inhibition (INH) [12]: Not Active
Papp A→B [24]: < 1.5 ×10⁻⁶ cm/s
TDI [14]: Not Active
inhibition (INH) [15]: Not Active
inhibition (INH) [16]: Not Active
Papp B→A [25]: 31.2 ×10⁻⁶ cm/s
fraction unbound [17]: 0.008
Papp [18]: 10.2 ×10⁻⁶ cm/s
remaining at 10 min, 0.5 µM [19]: 100%
TDI [20]: Not Active
TDI [21]: Not Active
TDI [22]: Not Active
SMILES: Cn1nc(-c2ccc(C(F)(F)F)cc2)c2cc(F)c(C(=O)NS(=O)(=O)C3CC3)cc21
pIC50 [7]: 5.19

SMILES: COc1cc(-c2cn(C)c3cc(C(=O)NS(=O)(=O)C4CC4)ccc23)cnc1OCC(C)C
pIC50 [5]: 7.07
pIC50 [7]: < 4.52

SMILES: CCc1ccc(-c2cn(C)c3cc(C(=O)NS(C)(=O)=O)ccc23)cc1
pIC50 [7]: < 4.52

inhibition (INH) [1]: Not Active
Papp [2]: 76.2 ×10⁻⁶ cm/s
TDI [3]: Not Active
remaining at 10 min, 0.5 µM [4]: 91%
pIC50 [5]: 7.35
inhibition (INH) [6]: Not Active
pIC50 [8]: 7.37
remaining at 10 min, 0.5 µM [9]: 92%
inhibition (INH) [10]: Not Active
TDI [11]: Not Active
inhibition (INH) [12]: Not Active
TDI [14]: Not Active
inhibition (INH) [15]: Not Active
inhibition (INH) [16]: Not Active
fraction unbound [17]: 0.011
Papp [18]: 10 ×10⁻⁶ cm/s
remaining at 10 min, 0.5 µM [19]: 88%
TDI [20]: Not Active
TDI [21]: Not Active
TDI [22]: Not Active
SMILES: CC(C)COc1ccc(-c2nn(C)c3cc(C(=O)NS(=O)(=O)C4CC4)c(F)cc23)cn1
pIC50 [7]: 4.96

SMILES: CC(C)COc1ccc(-c2cn(C)c3cc(C(=O)NS(C)(=O)=O)ccc23)cn1
pIC50 [5]: 6.79
pIC50 [7]: < 4.52

SMILES: Cc1ccc(-c2cn(C)c3cc(C(=O)NS(C)(=O)=O)ccc23)cc1
pIC50 [7]: < 4.52

pIC50 [5]: 5.85
SMILES: CC(C)COc1ncc(-c2cn(C)c3nc(C(=O)NS(C)(=O)=O)ccc23)cc1Cl

pIC50 [5]: 6.72
SMILES: CC(C)COc1ncc(-c2c3ccc(C(=O)NS(=O)(=O)C4CC4)cc3nn2C)cc1Cl

pIC50 [5]: 7.10
SMILES: Cn1cc(-c2ccc(OC(F)(F)F)cc2)c2ccc(C(=O)NS(C)(=O)=O)cc21
pIC50 [7]: 4.80

pIC50 [5]: 5.77
SMILES: CN(C)S(=O)(=O)NC(=O)c1ccc2c(-c3ccc(C(F)(F)F)cc3)cn(C)c2c1
pIC50 [7]: 4.72

SMILES: Cc1cccc(-c2cn(C)c3cc(C(=O)NS(C)(=O)=O)ccc23)c1
pIC50 [7]: < 4.52

SMILES: Cn1cc(-c2ccc(C(F)F)cc2)c2ccc(C(=O)NS(=O)(=O)C3CC3)cc21
pIC50 [7]: < 4.52

SMILES: Cn1cc(-c2ccc(C(F)F)cc2)c2cc(F)c(C(=O)NS(C)(=O)=O)cc21
pIC50 [7]: < 4.52

SMILES: Cn1cc(-c2ccccc2)c2ccc(C(=O)NS(C)(=O)=O)cc21
pIC50 [7]: < 4.52

SMILES: CCc1cccc(-c2cn(C)c3cc(C(=O)NS(C)(=O)=O)ccc23)c1
pIC50 [7]: < 4.52

SMILES: CC(C)COc1ccc(-c2nn(C)c3cc(C(=O)NS(C)(=O)=O)c(F)cc23)cn1
pIC50 [5]: 6.77
pIC50 [7]: < 4.52
